The values below come from patent publication US8450266B2 (Ipsen Pharma S.A.S., priority 2008, dated 2013).

Where a SMILES comes first, the peptide text is derived from it. [ ]: non-standard residue; d: D form. The star is where a group is joined. Myristoyl = CCCCCCCCCCCCCC(=O)*; Decanoyl = CCCCCCCCCC(=O)*; Ac6c = NC1(C(=O)O)CCCCC1; Orn = NCCC[C@H](N)C(=O)O; X1 = CCCN1C(=O)CC(*)C1=O; Hexanoyl = CCCCCC(=O)*

A short description of series [1]: Human plasma half-life assay (LC-MS). It is filed as in vitro ADME. The note with it: incubated at 37° C., read-out: Human Plasma T½ (converted). How it is done:
(§1) B. Human and Rat Plasma Half-Life Assay
(§2) 50 μl, was removed at various times, like at 0, 1, 2, 3, 4, 8, 24, 32, 48, 56, 72 hours, mixed with 5 μL formic acid and 150 μL acetonitrile in a microcentrifuge tube, vertexed, and centrifuged for 10 minutes at 10K rpm. The supernatant was transferred to an injection vial and analyzed by LC-MS. The LC-MS system consisted of an API4000 mass spectrometer with an ESI probe. Positive ion mode and full scan detection were used. HPLC separation was carried out on a Luna 3μ C8 (2), 2×30 mm column with a gradient from 90% A to 90% B in 10 minutes at a flow rate of 0.3 ml/min. Buffer A was 1% formic acid in water and buffer B was 1% formic acid acetonitrile.

Series [2] in a line: Rat plasma half-life assay (LC-MS). Particulars: incubated at 37° C., read-out: Rat Plasma T½ (converted). It is filed as in vitro ADME. How it is done:
as §1, §2

In the case of `CCCN1C(=O)CC(SC[C@H](NC(=O)[C@H](CCCCN)NC(=O)[C@H](CCC(N)=O)NC(=O)[C@H](C)NC(=O)[C@H](CC(C)C)NC(=O)[C@H](CC(C)C)NC(=O)[C@H](Cc2c[nH]c3ccccc23)NC(=O)[C@H](CC(N)=O)NC(=O)[C@@H](NC(=O)[C@H](Cc2ccccc2)NC(=O)[C@H](CC(=O)O)NC(=O)[C@H](CCC(N)=O)NC(=O)[C@H](CCC(N)=O)NC(=O)[C@H](Cc2c[nH]cn2)NC(=O)[C@@H](NC(=O)[C@H](CCCCN)NC(=O)[C@H](CC(=O)O)NC(=O)[C@H](CCSC)NC(=O)[C@H](C)NC(=O)[C@@H](NC(=O)[C@H](CO)NC(=O)[C@H](Cc2ccc(O)cc2)NC(=O)[C@H](CC(=O)O)NC(=O)[C@H](CO)NC(=O)C2(NC(C)=O)CCCCC2)[C@@H](C)CC)[C@@H](C)CC)C(C)C)C(=O)N[C@@H](CCCCN)C(=O)N[C@@H](CCCCN)C(=O)N[C@@H](CC(N)=O)C(=O)N[C@@H](CC(=O)O)C(=O)N[C@@H](Cc2c[nH]c3ccccc23)C(=O)N[C@@H](CCCCN)C(=O)N[C@@H](Cc2c[nH]cn2)C(=O)N[C@@H](CC(N)=O)C(=O)N[C@H](C(=O)N[C@H](C(=O)N[C@@H](CCC(N)=O)C(=O)O)[C@@H](C)O)[C@@H](C)CC)C1=O` (stereo partly drawn) [Example 10, [Ac-A6c^7, Cys(Psu)^31]hGIP(7-42)-OH] (Ac-[Ac6c]SDYSIAMDKIHQQDFVNWLLAQKC(X1)KKNDWKHNITQ-OH), the half-life at 0.1 mg/mL in series [1] is 480 min; in series [2] it was 156 min.
As for `CCCCCCCCCCCCCC(=O)NCCC[C@H](NC(=O)[C@H](CCCCN)NC(=O)[C@H](CCC(N)=O)NC(=O)[C@H](C)NC(=O)[C@H](CC(C)C)NC(=O)[C@H](CC(C)C)NC(=O)[C@H](Cc1c[nH]c2ccccc12)NC(=O)[C@H](CC(N)=O)NC(=O)[C@@H](NC(=O)[C@H](Cc1ccccc1)NC(=O)[C@H](CC(=O)O)NC(=O)[C@H](CCC(N)=O)NC(=O)[C@H](CCC(N)=O)NC(=O)[C@H](Cc1c[nH]cn1)NC(=O)[C@@H](NC(=O)[C@H](CCCCN)NC(=O)[C@H](CC(=O)O)NC(=O)[C@H](CCSC)NC(=O)[C@H](C)NC(=O)[C@@H](NC(=O)[C@H](CO)NC(=O)[C@H](Cc1ccc(O)cc1)NC(=O)[C@H](CC(=O)O)NC(=O)[C@H](CO)NC(=O)C1(NC(C)=O)CCCCC1)[C@@H](C)CC)[C@@H](C)CC)C(C)C)C(=O)N[C@@H](CCCCN)C(=O)N[C@@H](CCCCN)C(=O)N[C@@H](CC(N)=O)C(=O)N[C@@H](CC(=O)O)C(=O)N[C@@H](Cc1c[nH]c2ccccc12)C(=O)N[C@@H](CCCCN)C(=O)N[C@@H](Cc1c[nH]cn1)C(=O)N[C@@H](CC(N)=O)C(=O)N[C@H](C(=O)N[C@H](C(=O)N[C@@H](CCC(N)=O)C(=O)O)[C@@H](C)O)[C@@H](C)CC` [Example 12, [Ac-A6c^7, Orn^31(N-C(O)-(CH2)12-CH3)]hGIP(7-42)-OH] (Ac-[Ac6c]SDYSIAMDKIHQQDFVNWLLAQK[Orn](Myristoyl)KKNDWKHNITQ-OH), the figures for the half-life at 0.1 mg/mL in series [1] and in series [2] were 438 min and over 4320 min, respectively.
Consider `CCCCCCCCCC(=O)NCCC[C@H](NC(=O)[C@H](CCCCN)NC(=O)[C@H](CCC(N)=O)NC(=O)[C@H](C)NC(=O)[C@H](CC(C)C)NC(=O)[C@H](CC(C)C)NC(=O)[C@H](Cc1c[nH]c2ccccc12)NC(=O)[C@H](CC(N)=O)NC(=O)[C@@H](NC(=O)[C@H](Cc1ccccc1)NC(=O)[C@H](CC(=O)O)NC(=O)[C@H](CCC(N)=O)NC(=O)[C@H](CCC(N)=O)NC(=O)[C@H](Cc1c[nH]cn1)NC(=O)[C@@H](NC(=O)[C@H](CCCCN)NC(=O)[C@H](CC(=O)O)NC(=O)[C@H](CCSC)NC(=O)[C@H](C)NC(=O)[C@@H](NC(=O)[C@H](CO)NC(=O)[C@H](Cc1ccc(O)cc1)NC(=O)[C@H](CC(=O)O)NC(=O)[C@H](CO)NC(=O)C1(NC(C)=O)CCCCC1)[C@@H](C)CC)[C@@H](C)CC)C(C)C)C(=O)N[C@@H](CCCCN)C(=O)N[C@@H](CCCCN)C(=O)N[C@@H](CC(N)=O)C(=O)N[C@@H](CC(=O)O)C(=O)N[C@@H](Cc1c[nH]c2ccccc12)C(=O)N[C@@H](CCCCN)C(=O)N[C@@H](Cc1c[nH]cn1)C(=O)N[C@@H](CC(N)=O)C(=O)N[C@H](C(=O)N[C@H](C(=O)N[C@@H](CCC(N)=O)C(=O)O)[C@@H](C)O)[C@@H](C)CC` [Example 13, [Ac-A6c^7, Orn^31(N-C(O)-(CH2)8-CH3)]hGIP(7-42)-OH] (Ac-[Ac6c]SDYSIAMDKIHQQDFVNWLLAQK[Orn](Decanoyl)KKNDWKHNITQ-OH), for which the values for the half-life at 0.1 mg/ml in series [1] and in series [2] were 1070 min and 1140 min, respectively.
Regarding `CCCCCCCCCC(=O)NCCC[C@H](NC(=O)[C@H](CCCCN)NC(=O)[C@H](CCC(N)=O)NC(=O)[C@H](C)NC(=O)[C@H](CC(C)C)NC(=O)[C@H](CC(C)C)NC(=O)[C@H](Cc1c[nH]c2ccccc12)NC(=O)[C@H](CC(N)=O)NC(=O)[C@@H](NC(=O)[C@H](Cc1ccccc1)NC(=O)[C@H](CC(=O)O)NC(=O)[C@H](CCC(N)=O)NC(=O)[C@H](CCC(N)=O)NC(=O)[C@H](Cc1c[nH]cn1)NC(=O)[C@@H](NC(=O)[C@H](CCCCN)NC(=O)[C@H](CC(=O)O)NC(=O)[C@H](CCSC)NC(=O)[C@H](C)NC(=O)[C@@H](NC(=O)[C@H](CO)NC(=O)[C@H](Cc1ccc(O)cc1)NC(=O)[C@H](CC(=O)O)NC(=O)[C@H](CO)NC(=O)C1(N)CCCCC1)[C@@H](C)CC)[C@@H](C)CC)C(C)C)C(=O)N[C@@H](CCCCN)C(=O)N[C@@H](CCCCN)C(=O)N[C@@H](CC(N)=O)C(=O)N[C@@H](CC(=O)O)C(=O)N[C@@H](Cc1c[nH]c2ccccc12)C(=O)N[C@@H](CCCCN)C(=O)N[C@@H](Cc1c[nH]cn1)C(=O)N[C@@H](CC(N)=O)C(=O)N[C@H](C(=O)N[C@H](C(=O)N[C@@H](CCC(N)=O)C(=O)O)[C@@H](C)O)[C@@H](C)CC` [Example 14, [A6c^7, Orn^31(N-C(O)-(CH2)8-CH3)]hGIP(7-42)-OH] (H-[Ac6c]SDYSIAMDKIHQQDFVNWLLAQK[Orn](Decanoyl)KKNDWKHNITQ-OH), the half-life at 0.1 mg/ml was 246 min in series [1] and 918 min in series [2].
Turning to `CCCCCCCCCC(=O)NCCC[C@H](NC(=O)[C@H](CCCCN)NC(=O)[C@H](CCC(N)=O)NC(=O)[C@H](C)NC(=O)[C@H](CC(C)C)NC(=O)[C@H](CC(C)C)NC(=O)[C@H](Cc1c[nH]c2ccccc12)NC(=O)[C@H](CC(N)=O)NC(=O)[C@@H](NC(=O)[C@H](Cc1ccccc1)NC(=O)[C@H](CC(=O)O)NC(=O)[C@H](CCC(N)=O)NC(=O)[C@H](CCC(N)=O)NC(=O)[C@H](Cc1c[nH]cn1)NC(=O)[C@@H](NC(=O)[C@H](CCCCN)NC(=O)[C@H](CC(=O)O)NC(=O)[C@H](CCSC)NC(=O)[C@H](C)NC(=O)[C@@H](NC(=O)[C@H](CO)NC(=O)[C@H](Cc1ccc(O)cc1)NC(=O)[C@H](CC(=O)O)NC(=O)[C@H](CO)NC(=O)C1(NC(=O)CCCCCCCCC)CCCCC1)[C@@H](C)CC)[C@@H](C)CC)C(C)C)C(=O)N[C@@H](CCCCN)C(=O)N[C@@H](CCCCN)C(=O)N[C@@H](CC(N)=O)C(=O)N[C@@H](CC(=O)O)C(=O)N[C@@H](Cc1c[nH]c2ccccc12)C(=O)N[C@@H](CCCCN)C(=O)N[C@@H](Cc1c[nH]cn1)C(=O)N[C@@H](CC(N)=O)C(=O)N[C@H](C(=O)N[C@H](C(=O)N[C@@H](CCC(N)=O)C(=O)O)[C@@H](C)O)[C@@H](C)CC` [Example 15, [CH3-(CH2)8-C(O)-A6c^7, Orn^31(N-C(O)-(CH2)8-CH3)]hGIP(7-42)-OH] (Decanoyl-[Ac6c]SDYSIAMDKIHQQDFVNWLLAQK[Orn](Decanoyl)KKNDWKHNITQ-OH), the half-life at 0.1 mg/ml in series [1] is 312 min; in series [2], over 4320 min.
Consider `CCCCCC(=O)NCCC[C@H](NC(=O)[C@H](CCCCN)NC(=O)[C@H](CCC(N)=O)NC(=O)[C@H](C)NC(=O)[C@H](CC(C)C)NC(=O)[C@H](CC(C)C)NC(=O)[C@H](Cc1c[nH]c2ccccc12)NC(=O)[C@H](CC(N)=O)NC(=O)[C@@H](NC(=O)[C@H](Cc1ccccc1)NC(=O)[C@H](CC(=O)O)NC(=O)[C@H](CCC(N)=O)NC(=O)[C@H](CCC(N)=O)NC(=O)[C@H](Cc1c[nH]cn1)NC(=O)[C@@H](NC(=O)[C@H](CCCCN)NC(=O)[C@H](CC(=O)O)NC(=O)[C@H](CCSC)NC(=O)[C@H](C)NC(=O)[C@@H](NC(=O)[C@H](CO)NC(=O)[C@H](Cc1ccc(O)cc1)NC(=O)[C@H](CC(=O)O)NC(=O)[C@H](CO)NC(=O)C1(NC(C)=O)CCCCC1)[C@@H](C)CC)[C@@H](C)CC)C(C)C)C(=O)N[C@@H](CCCCN)C(=O)N[C@@H](CCCCN)C(=O)N[C@@H](CC(N)=O)C(=O)N[C@@H](CC(=O)O)C(=O)N[C@@H](Cc1c[nH]c2ccccc12)C(=O)N[C@@H](CCCCN)C(=O)N[C@@H](Cc1c[nH]cn1)C(=O)N[C@@H](CC(N)=O)C(=O)N[C@H](C(=O)N[C@H](C(=O)N[C@@H](CCC(N)=O)C(=O)O)[C@@H](C)O)[C@@H](C)CC` [Example 16, [Ac-A6c^7, Orn^31(N-C(O)-(CH2)4-CH3)]hGIP(7-42)-OH] (Ac-[Ac6c]SDYSIAMDKIHQQDFVNWLLAQK[Orn](Hexanoyl)KKNDWKHNITQ-OH), for which the results for the half-life at 0.1 mg/ml in series [1] and in series [2] were over 3000 min and 1800 min, respectively.
